# Experimental data published in patent US20180044686A1, “TOOLS AND METHODS FOR USING CELL DIVISION LOCI TO CONTROL PROLIFERATION OF CELLS” (Sinai Health System, priority 2015, published 2018).
# Experiments:
# [1] = system: mixed culture of non-dividing neurons and dividing NEPs derived from Cdk1+/+,+/alink human CA1 ES cells; test: Neuronal progenitor vs. neuron killing assay; assay type: cell-based; settings: GCV 10 uM every other day for 20 days
# Method: Cdk1^+/+, +/alink human CA1 ES cells were differentiated to neural epithelial progenitor cells (NEPs). NEPs were subsequently cultured under conditions for differentiation into neurons, thereby generating a mixed culture of non-dividing neurons and dividing NEPs, which were characterized by immunostaining of DAPI, Ki67 and Sox2. GCV (10 uM) was provided to the mixed culture every other day for 20 days. Then, GCV was withdrawn from culture for 4 days before cells were fixed by 4% PFA. Fixed cells were immunostained for proliferation marker Ki67 to check whether all the leftover cells have exited cell cycle, and mature neutron marker beta-TublinIII.
# [2] = system: subcutaneous teratomas comprising ALINK-modified mouse C2 cells; test: Teratoma assay, ALINK-modified mouse C2 ES cells; assay type: in vivo
# Method: (§1) Matrigel Matrix High Concentration (Corning) was diluted 1:3 with cold DMEM media on ice. 5-10×10^6 cells were suspended into 100 ul of 66% DMEM+33% Matrigel media and injected subcutaneously into either or both dorsal flanks of B6N mice (for mouse C2 ES cells) and NOD-SCID mice (for human ES cells). Teratomas formed 2-4 weeks after injection. Teratoma size was measured by caliper, and teratoma volume was calculated using the formula V=(L×W×H)π/6. GCV/PBS treatment was performed by daily injection with 50 mg/kg into the peritoneal cavity with different treatment durations. At the end of treatment, mice were sacrificed and tumors were dissected and fixed in 4% paraformaldehyde for histology analysis.
# [3] = system: ALINK-modified MMTV-PyMT-transformed mammary epithelial tumorigenic cell grafts; test: Mammary gland tumor assay; assay type: in vivo, mouse; settings: B6N hosts; GCV 50 mg/kg every other day i.p.
# Description: Chimeras of Cdk1^+/+, +/loxp-alink mouse C2 ES and CD-1 backgrounds were generated through diploid aggregation, and then were bred with B6N WT mice to generate Cdk1^+/+, +/loxp-alink mice through germline transmission. Cdk1^+/+, +/loxp-alink mice were bred with Ella-Cre mice to generate Cdk1^+/+, +/alink mice. Cdk1^+/+, +/alink mice were then bred with MMTV-PyMT mice (Guy et al., 1992) to get double-positive pups with mammary gland tumors and ALINK modification. Mammary gland tumors with fail-safe modification were isolated, cut into 1 mm^3 pieces, and transplanted into the 4th mammary gland of wild-type B6N females. GCV/PBS treatment was injected every other day at the dosage of 50 mg/kg into the peritoneal cavity with different treatment durations. Mammary gland tumor size was measured by calipers and calculated with the formula V=Length*Width*Height*π/6.
# [4] = system: subcutaneous teratomas comprising ALINK-modified H1 ES cells; test: Teratoma assay, ALINK-modified human ES cells; assay type: in vivo, mouse (human ES cell graft); settings: NOD scid gamma mouse hosts; two rounds of GCV (15 days + 40 days)
# Method: as §1
# [5] = system: Birc5-EARC ES cells; test: Targeted cell growth of Birc5-EARC ES cells; assay type: cell-based, mouse; settings: withdrawal of doxycycline
# Method: Birc5 homozygously-targeted cells were trypsinized and plated on gelatinized 24 well plates at a density of 5×10^4 cells per well. Starting one day after plating, cells were exposed to different Dox concentrations (1 μg/ml, 0.5 μg/ml, 0.05 μg/ml and 0 μg/ml), the plate was analyzed in a IncucyteZoom system (Essen Bioscience) by taking pictures every two hours for 3-4 days and measuring confluence.
# [6] = system: Cenpa-EARC ES cells; test: Targeted cell growth of Cenpa-EARC ES cells; assay type: cell-based, mouse; settings: withdrawal of doxycycline
# Method: Cenpa homozygously-targeted cells were trypsinized and plated on gelatinized 24 well plates at a density of 5×10^4 cells per well. Starting one day after plating, cells were exposed to different Dox concentrations (1 μg/ml, 0.5 μg/ml, 0.05 μg/ml and 0 μg/ml), the plate was analyzed in a IncucyteZoom system (Essen Bioscience) by taking pictures every two hours for 3-4 days and measuring confluency.
# [7] = system: homozygous Cdk1 dox-bridge knock-in mouse ES cells; test: Targeted cell growth of Cdk1 dox-bridge (EARC) ES cells; assay type: cell-based; settings: withdrawal of doxycycline
# Method: F3-bridge targeted cells were trypsinized and plated on gelatinized 24 well plates at a density of 5×10^4 cells per well. Starting one day after plating, cell counting was performed by trypsinizing 3 wells for each condition and counting live cells using a Countess automated cell counter (Life Technologies). Doxycycline was removed or reduced to 0.05 ng/ml 2 days after plating and live cells were counted every day up to 18 days in the different conditions.
# [8] = system: Top2a-EARC ES cells; test: Targeted cell growth of Top2a-EARC ES cells; assay type: cell-based, mouse; settings: withdrawal of doxycycline
# Method: Top2a homozygously-targeted cells were trypsinized and plated on gelatinized 24 well plates at a density of 5×10^4 cells per well. Starting one day after plating, cells were exposed to different Dox concentrations (1 μg/ml, 0.5 μg/ml, 0.05 μg/ml and 0 μg/ml), the plate was analyzed in a IncucyteZoom system (Essen Bioscience) by taking pictures every two hours for 3-4 days and measuring confluency.
# [9] = system: Eef2-EARC ES cells; test: Targeted cell growth of Eef2-EARC ES cells; assay type: cell-based, mouse; settings: withdrawal of doxycycline
# Method: Eef2 homozygously-targeted cells were trypsinized and plated on gelatinized 24 well plates at a density of 5×10^4 cells per well. Starting one day after plating, cells were exposed to different Dox concentrations (1 μg/ml, 0.5 μg/ml, 0.05 μg/ml and 0 μg/ml), the plate was analyzed in a IncucyteZoom system (Essen Bioscience) by taking pictures every two hours for 3-4 days and measuring confluence.
# [10] = cited from earlier work
compound,measurement,setting,value
"Nc1nc(O)c2ncn(COC(CO)CO)c2n1 [GCV, ganciclovir]",killing of dividing NEPs,[1],killed the dividing NEPs
same,killing of non-dividing neurons,[1],did not kill the non-dividing neurons
same,effect on quiescent cells of the teratoma,[2]; GCV 50 mg/kg daily i.p.,did not affect quiescent cells of the teratoma
same,teratoma growth,[2]; GCV 50 mg/kg daily i.p.,stops teratoma growth
same,teratoma dormancy,[2]; brief (3 week) GCV treatment period,sufficient to render the teratomas dormant
same,mammary gland tumor dormancy,[3],able to render the mammary gland tumors to dormancy
same,teratoma dormancy,[4],rendered the teratomas to dormancy
C[C@H]1c2cccc(O)c2C(=O)C2=C(O)[C@]3(O)C(=O)C(C(N)=O)=C(O)[C@@H](N(C)C)[C@@H]3[C@@H](O)[C@@H]21 [doxycycline],time to complete elimination of mitotically active ES cells,[5],≤ 4 days
same,time to complete elimination of mitotically active ES cells,[6],≤ 4 days
same,time to complete elimination of mitotically active ES cells,[7],≤ 5 days
same,time to complete elimination of mitotically active ES cells,[8],≤ 4 days
same,time to complete elimination of mitotically active ES cells,[9],≤ 4 days
Bms1,"CS score (CRISPR score average provided in Wang et al., 2015)","[10]; gene locus (predicted CDL), CRISPR score average",−1.36
Ppan,CS score,"[10]; CRISPR score average provided in Wang et al., 2015, score of the gene locus (predicted CDL)",−1.62
